Consider one compound from article PMC6079014, “Calcium is an essential cofactor for metal efflux by the ferroportin transporter family” (Nature Communications, 2018).

Test [1] deals with T1, human Fpn (Homo sapiens, UniProt Q9NP59).
T1 construct: expressed in transfected cells; host or cells: Xenopus laevis oocytes injected with Fpn RNA
T1 sequence (Q9NP59 1-571): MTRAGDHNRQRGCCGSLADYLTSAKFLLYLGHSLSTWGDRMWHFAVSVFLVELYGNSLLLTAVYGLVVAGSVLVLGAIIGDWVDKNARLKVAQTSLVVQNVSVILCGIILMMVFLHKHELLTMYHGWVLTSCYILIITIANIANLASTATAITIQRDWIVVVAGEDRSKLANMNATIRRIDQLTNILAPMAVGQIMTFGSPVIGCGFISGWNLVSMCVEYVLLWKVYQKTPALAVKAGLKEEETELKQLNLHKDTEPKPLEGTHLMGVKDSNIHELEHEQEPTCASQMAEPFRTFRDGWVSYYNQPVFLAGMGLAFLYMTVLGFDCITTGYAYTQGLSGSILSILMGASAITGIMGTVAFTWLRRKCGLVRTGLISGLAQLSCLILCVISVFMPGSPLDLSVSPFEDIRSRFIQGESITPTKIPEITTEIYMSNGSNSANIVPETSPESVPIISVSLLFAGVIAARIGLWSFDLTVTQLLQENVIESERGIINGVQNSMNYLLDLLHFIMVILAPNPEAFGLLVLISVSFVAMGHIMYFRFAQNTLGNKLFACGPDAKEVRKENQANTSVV
In words: 55Fe efflux from HEK293T cells with tet-inducible human Fpn. The class given is cell-based. Here is the method:
We measured ^55Fe efflux from HEK293 cells (E. Nemeth, UCLA) that were stably transfected with a tet-inducible human Fpn construct in pcDNA5/FRT/TO vector (Invitrogen) as described. Fpn expression was induced by adding 0.5 µg/ml doxycycline; data represent % efflux in induced minus uninduced cells. Fpn expression in mammalian cells was confirmed by visualizing GFP fluorescence, which was unaffected by removal of extracellular calcium.

The target of a further test is BbFpn E203A (Bdellovibrio bacteriovorus, UniProt Q6MLJ0, E203A). In words: Isothermal titration calorimetry, E203A BbFpn. The class given is binding, Bdellovibrio bacteriovorous.
The target in test [2] is T1, human Fpn. Description: 45Ca radiotracer uptake assay in Xenopus oocytes expressing Fpn. The class given is cell-based. The following applies: 100 μM 45Ca2+, 30 min; vehicle or 50 nl of 50 µM Fe injected. As to the method:
We performed laparotomy and ovariectomy on adult female Xenopus laevis frogs (Nasco, Fort Atkinson, WI) under 2-aminoethylbenzoate methanesulfonate anesthesia (0.2%, by immersion, to effect) following a protocol approved by the University of Cincinnati Institutional Animal Care and Use Committee. Ovarian tissue was isolated and treated for 3 h with […] collagenase A (Roche Diagnostics Corp., Indianapolis, IN) in calcium-free-modified Barths’ medium (MBM) of composition 88 mM NaCl, 1 mM KCl, 2.4 mM NaHCO3, 1.57 mM MgSO4, 0.66 mM NaNO3, 10 mM 4-(2-hydroxyethyl)-1-piperazineethanesulfonic acid (HEPES), buffered to pH 7.5 by using 2-amino-2-hydroxymethyl-propane-1,3-diol (Tris base). We isolated defolliculate stage V–VI oocytes stored at 17 °C in MBM of composition 88 mM NaCl, 1 mM KCl, 2.4 mM NaHCO3, 0.82 MgSO4, 0.75 mM CaCl2, 0.66 mM NaNO3, 10 mM HEPES, buffered to pH 7.5 by using Tris base, with 50 mg l^−1 ciprofloxacin. We expressed in Xenopus oocytes the 1A transcript form of human Fpn fused at its C-terminus with the enhanced green fluorescent protein (GFP) as described. Oocytes were injected with ∼50 ng of Fpn RNA and incubated for 4–6 days before being used in functional assays. Control oocytes were noninjected.
We measured calcium uptake by using a radiotracer assay. […]

A further test addresses BbFpn N196A (Bdellovibrio bacteriovorus, UniProt Q6MLJ0, N196A). In words: Isothermal titration calorimetry, N196A BbFpn. The class given is binding, Bdellovibrio bacteriovorous. A general note: In ITC the heat of successive injections is recorded.

BbFpn N196A, sequence (Q6MLJ0 whole entry N196A): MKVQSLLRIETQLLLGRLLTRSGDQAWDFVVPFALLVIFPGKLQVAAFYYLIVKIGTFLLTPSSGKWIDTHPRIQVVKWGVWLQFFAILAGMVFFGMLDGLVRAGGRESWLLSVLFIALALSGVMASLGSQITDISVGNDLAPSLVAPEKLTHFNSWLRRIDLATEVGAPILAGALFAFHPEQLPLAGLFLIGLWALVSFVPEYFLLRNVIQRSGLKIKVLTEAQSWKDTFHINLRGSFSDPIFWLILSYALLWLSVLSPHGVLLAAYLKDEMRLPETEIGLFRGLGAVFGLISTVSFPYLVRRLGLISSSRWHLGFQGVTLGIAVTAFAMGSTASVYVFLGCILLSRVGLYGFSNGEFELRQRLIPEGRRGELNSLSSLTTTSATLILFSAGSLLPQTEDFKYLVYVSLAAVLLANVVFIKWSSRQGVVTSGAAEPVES
BbFpn E203A, sequence (Q6MLJ0 whole entry E203A): as the sequence (Q6MLJ0 whole entry N196A) above, with A196N, E203A counted along it

On to `[Ca+2]` [Ca^2+, calcium], for which the “Effect of extracellular Ca2+ on 55Fe efflux” value at human Fpn [1] (HEK293T cells, 1 mM Ca2+, over 6 h (P = 0.002) and 24 h (P < 0.001), not at earlier time points) was “significantly activated”. For the same compound, the “Effect of removal of extracellular Ca2+ on Fpn-mediated 55Fe efflux” value at human Fpn [1] (HEK cells, 0 Ca2+ + 1 mM EGTA vs 1 mM Ca2+) is reported as “abolished”. Further, the “Binding to E203A BbFpn by ITC (in words)” value at BbFpn E203A is listed as “complete loss”. For the same compound, on human Fpn [2], the “Uptake of 45Ca2+ in oocytes expressing Fpn vs control” value is “neither Fpn expression nor intracellular iron injection stimulated”. Further, the “Binding to N196A BbFpn by ITC (in words)” value on BbFpn N196A is recorded as “complete loss”.
